Where a name gives a salt, the structure may show the parent alone.
System: standard pool of bacteria, yeasts, and molds
Assay: Microbial challenge test
Format: cell-based
Conditions: for microbial challenge test (by acid): HEURs treated with the named acid
Procedure: Compositions within and outside the scope of the present invention were tested for microbial growth susceptibility using a series of microbial challenge tests.
Samples were inoculated 2 times at 7-d intervals with 10^6-10^7 colony forming units per milliliter of sample (CFU/mL) of a standard pool of bacteria, yeasts, and molds obtained from American Type Culture Collection (ATCC) that are common contaminants in coatings. Once inoculated, the samples were stored in 25° C. incubators. Test samples were monitored for microbial contamination by agar plating using a standard streak plate method. Samples were plated 1 and 7 day after each microbial challenge onto trypticase soy agar (TSA) and potato dextrose agar (PDA) plates. All agar plates were checked daily up to 7 d after plating to determine the number of microorganisms surviving in the test samples. When not being checked, the agar plates were stored in incubators, 30° C. for TSA plates and 25° C. for PDA plates. The extent of microbial contamination was established by counting the colonies, where the rating score was determined from the number of microbial colonies observed on the agar plates. Reported results come from day 7 readings. Table 1 illustrates the rating system used to estimate the level of microbial contamination on streak plates. Colonies refers to the number of colonies on the plate.

Row | SMILES | microbial challenge test (by acid) | microbial challenge test at a pH of 2.8 (pH of 2.8) | microbial challenge test at a pH of 3.3 (pH of 3.3)
1 | O=S(=O)(O)O [Example H2SO4, sulfuric acid] | passed |  | 
2 | Cl [HCl, hydrochloric acid] | passed |  | 
3 | O=P(O)(O)CN(CP(=O)(O)O)CP(=O)(O)O [NTMTPA, nitrilotris(methylene)triphosphonic acid] | passed |  | 
4 | O=P(O)(O)O [phosphoric acid] | passed | not optimal | failed

Reference: US11965091B2, “Biocide free associative thickener” (Rohm and Haas Company, priority 2019, dated 2024)
